Reference: patent US20260028354A1, “TETRAHYDRONAPHTHALENE DERIVATIVES AS ESTROGEN RECEPTOR DEGRADERS” (REGENT OF THE UNIVERSITY OF MICHIGAN, priority 2022, published 2026)
Where two headings read alike, the source gives them in different places.

Legend:
CRBN/DDB1 = CRBN/DDB1 (Homo sapiens (Human), UniProt Q96SW2); type: binding; conditions: His tagged CRBN+DDB1, Cy5-labeled Thalidomide probe, one hour; read-out: CRBN HTRF IC50
Method: The binding potency was determined using HTRF assay technology (Perkin Elmer). Compounds were serially diluted in DMSO and […] volume was transferred to white 384-well plate.

ER in MCF-7 cells = ER in MCF-7 cells (Homo sapiens (Human), UniProt P03372); assay: In-cell Western (ICW) ER degradation assay in MCF-7 cells; type: cell-based; conditions: for DC50: MCF-7, ER degradation, read-out: MCF7 DC50
ER in T47D cells = ER in T47D cells (Homo sapiens (Human), UniProt P03372); assay: In-cell Western (ICW) ER degradation assay in T47D cells; type: cell-based; conditions: for DC50: ER degradation
[1] = MCF7, read-out: MCF7 Dmax, MCF-7, maximal ER degradation, 16 hrs treatment
[2] = read-out: T47D Dmax, T47D, maximal ER degradation, 16 hrs treatment
[3] = MCF7, MCF-7, maximal ER degradation, 16 hrs treatment, read-out: MCF7 Dmax
[4] = maximal ER degradation, 16 hrs treatment, read-out: T47D Dmax

CRBN/DDB1, sequence (Q96SW2 whole entry, species assumed): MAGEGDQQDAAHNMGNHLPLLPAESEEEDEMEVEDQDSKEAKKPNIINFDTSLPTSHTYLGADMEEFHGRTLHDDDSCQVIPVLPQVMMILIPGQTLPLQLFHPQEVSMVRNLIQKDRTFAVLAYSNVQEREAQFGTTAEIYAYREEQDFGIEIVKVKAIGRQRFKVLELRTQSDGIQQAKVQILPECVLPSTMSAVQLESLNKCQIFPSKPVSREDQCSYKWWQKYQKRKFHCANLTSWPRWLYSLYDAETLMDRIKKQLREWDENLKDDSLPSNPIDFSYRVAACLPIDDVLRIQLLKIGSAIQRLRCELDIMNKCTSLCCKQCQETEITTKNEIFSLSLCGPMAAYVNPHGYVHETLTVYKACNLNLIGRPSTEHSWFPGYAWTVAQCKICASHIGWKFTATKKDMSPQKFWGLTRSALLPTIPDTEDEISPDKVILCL
CRBN/DDB1, sequence (Q16531 whole entry partner, species assumed): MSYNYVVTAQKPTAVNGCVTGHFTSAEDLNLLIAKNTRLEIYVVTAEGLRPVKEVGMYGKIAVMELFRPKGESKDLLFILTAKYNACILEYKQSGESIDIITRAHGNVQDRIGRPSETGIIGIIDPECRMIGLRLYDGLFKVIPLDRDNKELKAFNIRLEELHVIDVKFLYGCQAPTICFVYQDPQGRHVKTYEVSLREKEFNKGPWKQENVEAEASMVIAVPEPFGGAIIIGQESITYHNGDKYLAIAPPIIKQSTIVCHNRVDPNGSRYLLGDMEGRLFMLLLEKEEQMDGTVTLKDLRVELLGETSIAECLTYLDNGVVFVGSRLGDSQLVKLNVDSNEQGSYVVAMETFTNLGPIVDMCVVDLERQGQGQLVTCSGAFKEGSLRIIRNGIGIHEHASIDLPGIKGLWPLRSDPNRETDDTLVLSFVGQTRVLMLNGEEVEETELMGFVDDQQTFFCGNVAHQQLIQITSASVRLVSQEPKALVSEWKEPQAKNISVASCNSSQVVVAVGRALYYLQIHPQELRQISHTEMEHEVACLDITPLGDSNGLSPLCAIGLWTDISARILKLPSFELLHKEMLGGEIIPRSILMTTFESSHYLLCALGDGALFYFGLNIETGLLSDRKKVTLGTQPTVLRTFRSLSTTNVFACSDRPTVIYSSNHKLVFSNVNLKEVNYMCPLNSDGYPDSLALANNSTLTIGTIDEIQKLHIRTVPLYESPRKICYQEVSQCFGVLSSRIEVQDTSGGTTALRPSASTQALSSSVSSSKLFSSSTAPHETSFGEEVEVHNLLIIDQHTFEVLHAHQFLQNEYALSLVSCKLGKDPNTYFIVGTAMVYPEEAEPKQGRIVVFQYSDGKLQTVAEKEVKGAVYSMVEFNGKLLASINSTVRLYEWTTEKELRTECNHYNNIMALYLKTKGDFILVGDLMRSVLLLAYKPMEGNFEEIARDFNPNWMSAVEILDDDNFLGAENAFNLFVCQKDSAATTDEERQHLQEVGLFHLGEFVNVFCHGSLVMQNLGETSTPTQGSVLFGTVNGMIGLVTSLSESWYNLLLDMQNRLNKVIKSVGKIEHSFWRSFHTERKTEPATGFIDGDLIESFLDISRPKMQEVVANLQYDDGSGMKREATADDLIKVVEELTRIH
ER in T47D cells, sequence (P03372 whole entry): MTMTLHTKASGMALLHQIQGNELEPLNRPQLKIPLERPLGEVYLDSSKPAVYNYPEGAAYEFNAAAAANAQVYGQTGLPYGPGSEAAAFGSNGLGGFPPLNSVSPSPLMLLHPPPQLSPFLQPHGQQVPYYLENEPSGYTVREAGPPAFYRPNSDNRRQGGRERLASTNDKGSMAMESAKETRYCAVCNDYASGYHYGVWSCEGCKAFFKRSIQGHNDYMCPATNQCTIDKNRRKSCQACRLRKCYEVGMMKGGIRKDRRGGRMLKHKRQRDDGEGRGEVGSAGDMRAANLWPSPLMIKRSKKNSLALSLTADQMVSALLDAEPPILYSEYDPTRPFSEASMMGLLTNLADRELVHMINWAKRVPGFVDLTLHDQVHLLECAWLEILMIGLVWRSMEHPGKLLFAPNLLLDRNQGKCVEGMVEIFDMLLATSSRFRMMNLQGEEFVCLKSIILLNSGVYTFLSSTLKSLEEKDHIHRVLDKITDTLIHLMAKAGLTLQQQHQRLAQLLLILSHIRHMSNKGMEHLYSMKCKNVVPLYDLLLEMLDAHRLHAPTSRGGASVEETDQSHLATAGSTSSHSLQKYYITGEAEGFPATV
ER in MCF-7 cells, sequence (P03372 whole entry): as above

SMILES | IC50 (CRBN/DDB1) [nM] | Dmax (ER in MCF-7 cells; [1]) [%] | DC50 (ER in MCF-7 cells; 16 hrs treatment) [nM] | DC50 (ER in T47D cells; 16 hrs treatment) [nM] | Dmax (ER in T47D cells; [2]) [%] | Dmax (ER in MCF-7 cells; [3]) [%] | Dmax (ER in T47D cells; [4]) [%] | MCF7 Dmax (ER in MCF-7 cells; MCF-7, maximal ER degradation, 16 hrs treatment) | T47D Dmax (ER in T47D cells; maximal ER degradation, 16 hrs treatment)
COc1cc(N2CCC(CN3CCC4(CC3)COc3c4ccc4c3CN([C@H]3CCC(=O)NC3=O)C4=O)CC2)ccc1[C@@H]1c2ccc(O)cc2CC[C@@H]1c1ccccc1 [Compound A37, (R)-3-(1′-((1-(4-((1R,2R)-6-hydroxy-2-phenyl-1,2,3,4-tetrahydronaphthalen-1-yl)-3-methoxyphenyl)piperidin-4-yl)methyl)-6-oxo-6,8-dihydro-2H,7H-spiro[furo[2,3-e]iso-indole-3,4′-piperidin]-7-yl)-piperidine-2,6-dione] | < 50 | 25 to 50 | < 1 | < 1 | 25 to 50 |  |  |  | 
O=C1CCC(Nc2ccc(C34CCN(C[C@H]5COC6(CCN(c7ccc([C@@H]8c9ccc(O)cc9CC[C@@H]8c8ccccc8)cc7)CC6)C5)CC3C4(F)F)cc2)C(=O)N1 (stereo partly drawn) [Compound A44, (3S)-3-((4-(7,7-difluoro-3-(((S)-8-(4-((1R,2S)-6-hydroxy-2-phenyl-1,2,3,4-tetrahydro-naphthalen-1-yl)phenyl)-1-oxa-8-azaspiro[4.5]decan-3-yl)-methyl)-3-azabicyclo[4.1.0]heptan-6-yl)phenyl)amino)-piperidine-2,6-dione] | > 5000 | < 25 | > 100 | > 100 | < 25 |  |  |  | 
O=C1CC[C@H](Nc2ccc(C3CCN(C[C@H]4COC5(CCN(c6ccc([C@H]7c8ccc(O)cc8CC[C@H]7c7ccccc7)cc6)CC5)C4)CC3)cc2)C(=O)N1 (single isomer, unassigned) [Compound A49] | 50 to 500 |  | < 1 | < 1 |  | 50 to 75 | 50 to 75 |  | 
COc1cc(N2CCC3(CC2)CC(CN2CCN4c5ccc6c(c5OC[C@H]4C2)CN([C@H]2CCC(=O)NC2=O)C6=O)C3)ccc1[C@@H]1c2ccc(O)cc2CC[C@@H]1c1ccccc1 (single isomer, unassigned) [Compound A10] | < 50 |  | < 1 | < 1 |  | > 75 | > 75 |  | 
O=C1CC[C@H](N2Cc3c(ccc4c3OC[C@H]3CN(CC5CC6(CCN(c7ccc([C@H]8c9ccc(O)cc9CC[C@H]8c8ccccc8)cn7)CC6)C5)CCN43)C2=O)C(=O)N1 (single isomer, unassigned) [Compound A113] | 50 to 500 |  | 10 to 100 | 10 to 100 |  | 25 to 50 | 25 to 50 |  | 
O=C1CC[C@H](NC(=O)c2ccc3c(n2)OC[C@H]2CN(C[C@@H]4COC5(CCN(c6ccc([C@@H]7c8ccc(O)cc8CC[C@@H]7c7ccccc7)cc6)CC5)C4)CCN32)C(=O)N1 (single isomer, unassigned) [Compound A14] | 500 to 5000 |  | < 1 | < 1 |  | 50 to 75 | 50 to 75 |  | 
O=C1CCC(NC(=O)c2ccc3c(n2)OC[C@H]2CN(CC4CCN(c5ccc([C@H]6c7ccc(O)cc7CC[C@H]6c6ccccc6)cc5)CC4)CCN32)C(=O)N1 (stereo in doubt) [Compound A4, (4aR)-N-(2,6-dioxopiperidin-3-yl)-3-((1-(4-((1S,2R)-6-hydroxy-2-phenyl-1,2,3,4-tetrahydronaphthalen-1-yl)-phenyl)piperidin-4-yl)meth-yl)-1,2,3,4,4a,5-hexahydro-pyrazino[1,2-d]pyrido[2,3-b] [1,4]oxazine-8-carboxamide] | 500 to 5000 |  | 1 to 10 | < 1 |  | 50 to 75 | 50 to 75 |  | 
O=C1CC[C@H](N2Cc3c(ccc4c3OCC43CCN(CC4CC5(CCN(c6ccc([C@H]7c8ccc(O)cc8CC[C@H]7c7ccccc7)cc6F)CC5)C4)CC3)C2=O)C(=O)N1 [Compound A148, (S)-3-(1′-((7-(2-fluoro-4-((1S,2R)-6-hydroxy-2-phenyl-1,2,3,4-tetrahydronaphthalen-1-yl)phenyl)-7-azaspiro[3.5]nonan-2-yl)methyl)-6-oxo-6,8-dihydro-2H,7H-spiro[furo[2,3-e]isoindole-3,4′-piperidin]-7-yl)piperidine-2,6-dione] | < 50 | 50 to 75 | < 1 | < 1 | > 75 |  |  |  | 
O=C1CC[C@@H](Nc2ccc(C3CCN(CC4CC5(CCN(c6ccc([C@@H]7c8ccc(O)cc8CC[C@@H]7c7ccccc7)cc6)CC5)C4)CC3)cc2)C(=O)N1 (single isomer, unassigned) [Compound A66] | 50 to 500 |  | 1 to 10 | 1 to 10 |  | 50 to 75 | 50 to 75 |  | 
O=C1CC[C@H](NC(=O)c2ccc3c(n2)OC[C@H]2CN(C[C@H]4COC5(CCN(c6ccc([C@@H]7c8ccc(O)cc8CC[C@@H]7c7ccccc7)cc6)CC5)C4)CCN32)C(=O)N1 (single isomer, unassigned) [Compound A13] | 500 to 5000 |  | 1 to 10 | 1 to 10 |  | 50 to 75 | 50 to 75 |  | 
O=C1CC[C@H](N2Cc3cc4c(cc3C2=O)OCC42CCN(CC3CC4(CCN(c5ccc([C@@H]6c7ccc(O)cc7CC[C@@H]6c6ccccc6)cn5)CC4)C3)CC2)C(=O)N1 [Compound A126, (S)-3-(1′-((7-(5-((1S,2S)-6-hydroxy-2-phenyl-1,2,3,4-tetra-hydronaphthalen-1-yl)pyridin-2-yl)-7-azaspiro[3.5]nonan-2-yl)methyl)-7-oxo-5,7-dihydro-2H,6H-spiro[furo[2,3-f]iso-indole-3,4′-piperidin]-6-yl)-piperidine-2,6-dione] | 50 to 500 |  | < 1 | < 1 |  |  |  | B (“B”: >50 and <75%) | A (“A”: >=75%)
COc1cc(N2CC3(CC(CN4CCN5c6ccc7c(c6OC[C@H]5C4)CN([C@H]4CCC(=O)NC4=O)C7=O)CO3)C2)ccc1[C@H]1c2ccc(O)cc2CC[C@H]1c1ccccc1 (single isomer, unassigned) [Compound A47] | 50 to 500 |  | 10 to 100 | 1 to 10 |  | 50 to 75 | 25 to 50 |  | 
O=C1CC[C@H](N2Cc3cc4c(cc3C2=O)OC[C@H]2CN(C[C@H]3COC5(CCN(c6ccc([C@@H]7c8ccc(O)cc8CC[C@@H]7c7ccccc7)cc6)CC5)C3)CCN42)C(=O)N1 (single isomer, unassigned) [Compound A17] | 500 to 5000 |  | 1 to 10 | 1 to 10 |  | 25 to 50 | 25 to 50 |  | 
O=C1CC[C@H](N2Cc3cc4c(cc3C2=O)OC[C@H]2CN(C[C@@H]3COC5(CCN(c6ccc([C@H]7c8ccc(O)cc8CC[C@H]7c7ccccc7)cc6)CC5)C3)CCN42)C(=O)N1 [Compound A20, (S)-3-((R)-3-(((R)-8-(4-((1S, 2R)-6-hydroxy-2-phenyl-1,2,3,4-tetrahydronaphthalen-1-yl)phenyl)-1-oxa-8-azaspiro [4.5]decan-3-yl)methyl)-8-oxo-1,2,3,4,4a,5,8,10-oCtahydro-9H-pyrazino[1′,2′:4,5][1,4]oxazino[2,3-f]isoindol-9-yl)-piperidine-2,6-dione] | 50 to 500 |  | < 1 | < 1 |  | 50 to 75 | 50 to 75 |  | 
